# Results taken from BindingDB's records for doi:10.1016/j.bmcl.2012.05.078 (University of Milan, 2012).
# pIC50: −log10 of the molar value.
# Assay: Inhibition of Met-triggered cell scattering in HGF-stimulated MDCK cells preincubated for overnight before HGF challenge measured after 24 to 48 hrs
row,Compound,pIC50
1,O=C(Cc1cc(C(F)(F)F)cc(C(F)(F)F)c1)N[C@H](Cc1ccccc1)C(=O)Nc1ccc(-c2cn3c(n2)sc2ccccc23)cc1,6.70
2,O=C(Cc1cc(C(F)(F)F)cc(C(F)(F)F)c1)N[C@@H](Cc1ccccc1)C(=O)Nc1ccc(-c2cn3c(n2)sc2ccccc23)cc1,6.70
3,"Cc1[nH]c(/C=C2\C(=O)Nc3ccc(S(=O)(=O)N(C)c4cccc(Cl)c4)cc32)c(C)c1C(=O)N1CCN(C)CC1 [(3Z)-N-(3-CHLOROPHENYL)-3-({3,5-DIMETHYL-4-[(4-METHYLPIPERAZIN-1-YL)CARBONYL]-1H-PYRROL-2-YL}METHYLENE)-N-METHYL-2-OXOINDOLINE-5-SULFONAMIDE]",6.70
4,O=C(Cc1cc(C(F)(F)F)cc(C(F)(F)F)c1)NC(Cc1ccccc1)c1cn(-c2ccc(-c3cn4c(n3)sc3ccccc34)cc2)nn1 (centres undefined),6.22
